Reference: US20120208776A1 (priority 2002, published 2012)
Values joined by “and” are separate entries in the source; they are usually repeats but may differ in a detail not shown here. Equal entries are not always repeated. Where two headings read alike, the source gives them in different places.

Columns and labels:
MDA-MB-453 cells = assay type: cell-based, human
Procedure: RNA was isolated as previously described. […] Total RNA (8 μg) was reverse transcribed with T7-(dT)24 primer and Super Script III reverse transcriptase (Invitrogen). After purification, cDNA was in vitro transcribed into biotin labeled antisense cRNA with the BioArray high yield RNA transcript labeling kit (Enzo Life Sciences; Farmingdale, N.Y.), according to a modified Affymetrix protocol. cRNA (15 μg) was fragmented into the final probe and hybridized to human U133A 2.0 gene chips (Affymetrix, Inc.; Santa Clara, Calif.), comprised of more than 22,000 probe sets. The Institute for Cancer Genetics Core Facility at the Columbia Genome Center performed the hybridization.
Two or three replicates of each microarray were performed to determine intrasample variation. To bolster the robustness of the analysis, the effects of 4 doses for 2 time periods were examined.
All analyses were performed using the AffyLimmaGUI package in the open-source Bioconductor suite, as previously described. […] Variability is reported in terms of a p-value representing the probability that differences between treated and untreated could occur by chance. The p-value takes into account both the variability within groups (in this case the groups are treated and control) and the variability between groups.

MCF7 cells = test: Cell proliferation, cell count (Coulter Counter); assay type: cell-based, human; details: for IC50: Homo sapiens, MCF7 cells, read-out: IC50
[1] = test system: HepG2 p53 positive human liver cancer cells; test: MTT proliferation assay; assay type: cell-based
[2] = test system: cyclin D1 and p21 mRNA in MDA-MB-453 cells; test: RT-PCR of mRNA; assay type: cell-based, human
Procedure: (§1) MDA-MB-453 cells were treated with DMSO or actein for 3, 10, or 24 h. RNA was isolated and analyzed by RT-PCR, using primers for cyclin D1 and actin (control). The staining intensities of the visualized blots were quantified using NIH image software. The relative band intensities were determined by comparing treated samples with untreated controls. These values were then normalized (fold), using actin as an internal control.
as §1, with “using β-actin” for “using actin”

[3] = Animal wellness, histopathological examination, tolerated dose; assay type: in vivo, Sprague-Dawley rats; details: actein 35.7 mg/kg; 24 hours
Procedure: A sample of each mammary tumor was collected, frozen in liquid nitrogen and kept at −70° C.
Analysis by microscopy: Histopathological examination of H&E and H&E/Oil Red O stained sections of control and treated tissues obtained 6 or 24 hours after treatment were performed. Tissues were embedded in OCT (optimal cutting temperature compound to enable cryosectioning of the sample).
Livers were embedded in OCT (optimal cutting temperature compound to enable cryosectioning of the sample) and stained with haematoxylin and eosin (H and E). All samples were visualized with a Zeiss Axioplan 2 microscope (Carl Zeiss Inc., Thornwood, N.Y.) and images were obtained with a Nikon Coolpix 5000 (Nikon Instruments, Melville, N.Y.) camera.

rat liver mRNAs = assay type: in vivo, Sprague-Dawley rats; details: 35.7 mg/kg
Description: Total RNA was isolated using Trizol (Invitrogen, CA), and purified with the RNeasy Kit (Qiagen, CA). mRNA sequences were obtained from the public GeneBank database (www.ncbi.nlm.nih.gov), and primers were designed using Primer3 software from The Massachusetts Institute of Technology (frodo.wi.mit.edu/cgi-bin/primer3/primer3_www.cgi).

[4] = Lipid analysis of rat liver; assay type: in vivo, Sprague-Dawley rats; details: actein 35.7 mg/kg; 24 hours
Procedure: (§2) Lipid analysis: Hepatic lipids were extracted by homogenization of the liver followed by addition of choloroform:methanol (2:1). After vortex and centrifugation for 10 min, the organic phase was collected and dried under nitrogen. The dried lipids were dissolved in 1% Triton X-100 in water and sonicated. Extracted hepatic lipids and plasma lipids were measured by cholesterol and triglyceride enzymatic assay kits from Infinity (Louisville, Colo.) according to the manufacturer's instruction. Free fatty acids were measured by Enzymatic assay using NEFA C kit from Wako Chemicals (Richmond, Va.). Tissue lipids were normalized by protein concentration.
as §2, with “Hepatic” for “Lipid analysis: Hepatic”, “liver from the 24 h group,” for “liver”, “vortexing” for “vortex”, “Colo.),” for “Colo.)”, “instructions.” for “instruction.”

SMILES: C[C@H]1O[C@@H](O[C@H]2[C@@H](O)C[C@H](O[C@H]3[C@@H](O)C[C@H](O[C@H]4CC[C@@]5(C)[C@H](CC[C@@H]6[C@@H]5CC[C@]5(C)[C@@H](C7=CC(=O)OC7)CC[C@]65O)C4)O[C@@H]3C)O[C@@H]2C)C[C@H](O)[C@@H]1O [digitoxin]
- number of genes with significantly altered expression (MDA-MB-453 cells; digitoxin 20 ng/ml, 24 hours): 22
- number of genes altered (MDA-MB-453 cells; digitoxin 0.1 μg/mL, 6 hours): 2
- number of genes altered (MDA-MB-453 cells; digitoxin 0.1 μg/mL, 24 hours): 8
- number of genes altered (MDA-MB-453 cells; digitoxin 0.2 μg/mL, 6 hours): 6
- number of genes altered (MDA-MB-453 cells; digitoxin 0.2 μg/mL, 24 hours): 88
- number of genes altered (MDA-MB-453 cells; digitoxin 1 μg/mL, 6 hours): 87
- number of genes altered (MDA-MB-453 cells; digitoxin 1 μg/mL, 24 hours): 1491

SMILES: CC(=O)O[C@@H]1C[C@@]23C[C@@]24CC[C@H](O[C@@H]2OC[C@@H](O)[C@H](O)[C@H]2O)C(C)(C)[C@@H]4CC[C@H]3[C@]2(C)C[C@@H]3O[C@]4(C[C@@H](C)[C@@H]3[C@@]12C)O[C@H](O)[C@@]1(C)O[C@@H]41 [actein]
- IC50 (MCF7 cells; 96 h): 14 µg/mL
- IC50 (MCF7 cells; 96 h, value in parentheses): 21 µM
- cells alive (MCF7 cells; MCF7, 20 μg/ml, 96 h): 38.0%±3.0
- potency relative to 23-epi-26-deoxyactein or cimifugoside (MCF7 cells; MCF7 growth inhibition): approximately 1.5 fold
- potency relative to cimiracemoside A (MCF7 cells; MCF7 growth inhibition): approximately 3 times
- IC50 [1]: 27 µg/mL and 40 µM
- cyclin D1 mRNA (RT-PCR) ([2]; 3 h, 20 μg/ml): 0.88 fold
- cyclin D1 mRNA (RT-PCR) ([2]; 3 h, 40 μg/ml): 1 fold
- cyclin D1 mRNA (RT-PCR) ([2]; 10 h, 20 μg/ml): 1.18 fold
- cyclin D1 mRNA (RT-PCR) ([2]; 10 h, 40 μg/ml): 1.02 fold
- cyclin D1 mRNA (RT-PCR) ([2]; 24 h, 20 μg/ml): 0.98 fold
- cyclin D1 mRNA (RT-PCR) ([2]; 24 h, 40 μg/ml): 0.56 fold
- liver histology (H&E) [3]: hepatotoxicity
- Fold-change relative to control, BZRP, RT-PCR (rat liver mRNAs; 6 h): 0.07
- Fold-change relative to control, CCND1, RT-PCR (rat liver mRNAs; 6 h): 0.52
- Fold-change relative to control, HMGCR, RT-PCR (rat liver mRNAs; 6 h): −0.45
- Fold-change relative to control, HMGCS1, RT-PCR (rat liver mRNAs; 6 h): −0.82
- Fold-change relative to control, HSD17B7, RT-PCR (rat liver mRNAs; 6 h): −0.66
- Fold-change relative to control, ID3, RT-PCR (rat liver mRNAs; 6 h): 0.30
- Fold-change relative to control, NQO1, RT-PCR (rat liver mRNAs; 6 h): −0.50
- Fold-change relative to control, S100A9, RT-PCR (rat liver mRNAs; 6 h): −0.36
- Fold-change relative to control, BZRP, RT-PCR (rat liver mRNAs; 24 h): 1.13
- Fold-change relative to control, CCND1, RT-PCR (rat liver mRNAs; 24 h): −2.32
- Fold-change relative to control, HMGCR, RT-PCR (rat liver mRNAs; 24 h): 0.45
- Fold-change relative to control, HMGCS1, RT-PCR (rat liver mRNAs; 24 h): 1.44
- Fold-change relative to control, HSD17B7, RT-PCR (rat liver mRNAs; 24 h): 1.21
- Fold-change relative to control, ID3, RT-PCR (rat liver mRNAs; 24 h): −1.52
- Fold-change relative to control, NQO1, RT-PCR (rat liver mRNAs; 24 h): 1.73
- Fold-change relative to control, S100A9, RT-PCR (rat liver mRNAs; 24 h): 2.92
- cholesterol level in liver vs controls [4]: 0.6 fold
- free fatty acid level in liver vs controls [4]: 0.6 fold
- triglyceride content of liver vs controls [4]: no change
